Assay results from ChEMBL document CHEMBL1649268, “Comparative in vitro activity profile of oritavancin against recent gram-positive clinical isolates” (2009).
≈ marks a conversion by molar mass, not a printed value.

Experiments:
Enterococcus faecium [1] = assay: Antimicrobial activity against Enterococcus faecium clinical isolates assessed as percent susceptible isolates by broth microdilution method; assay type: functional
[2] = test system: Staphylococcus haemolyticus; assay: Antimicrobial activity against Staphylococcus haemolyticus clinical isolates assessed as resistant isolates by broth microdilution method; assay type: functional
Staphylococcus aureus [3] = assay: Antimicrobial activity against oxacillin-susceptible Staphylococcus aureus clinical isolates assessed as percent susceptible isolates by broth microdilution method; assay type: functional
Staphylococcus aureus [4] = assay: Antimicrobial activity against Staphylococcus aureus clinical isolates assessed as percent susceptible isolates by broth microdilution method; assay type: functional
Enterococcus faecium [5] = assay: Antimicrobial activity against Enterococcus faecium expressing VanA gene clinical isolates assessed as percent susceptible isolates by broth microdilution method; assay type: functional
Enterococcus faecium [6] = assay: Antimicrobial activity against vancomycin-nonsusceptible Enterococcus faecium clinical isolates assessed as percent susceptible isolates by broth microdilution method; assay type: functional
Staphylococcus aureus [7] = assay: Antimicrobial activity against oxacillin-susceptible Staphylococcus aureus clinical isolates assessed as resistant isolates by broth microdilution method; assay type: functional
Staphylococcus aureus [8] = assay: Antimicrobial activity against oxacillin-resistant Staphylococcus aureus clinical isolates assessed as resistant isolates by broth microdilution method; assay type: functional
Enterococcus faecium [9] = assay: Antimicrobial activity against Enterococcus faecium clinical isolates assessed as resistant isolates by broth microdilution method; assay type: functional
[10] = test system: Staphylococcus haemolyticus; assay: Antimicrobial activity against oxacillin-susceptible Staphylococcus haemolyticus clinical isolates assessed as percent susceptible isolates by broth microdilution method; assay type: functional
[11] = test system: Staphylococcus epidermidis; assay: Antimicrobial activity against oxacillin-resistant Staphylococcus epidermidis clinical isolates by broth microdilution method; assay type: functional
[12] = test system: Staphylococcus epidermidis; assay: Antimicrobial activity against oxacillin-susceptible Staphylococcus epidermidis clinical isolates by broth microdilution method; assay type: functional
[13] = test system: Staphylococcus epidermidis; assay: Antimicrobial activity against oxacillin-resistant Staphylococcus epidermidis clinical isolates assessed as resistant isolates by broth microdilution method; assay type: functional
Enterococcus faecalis [14] = assay: Antimicrobial activity against Enterococcus faecalis expressing VanA gene clinical isolates by broth microdilution method; assay type: functional
[15] = Antimicrobial activity against erythromycin-nonsusceptible Streptococcus Group G clinical isolates assessed as percent susceptible isolates by broth microdilution method; assay type: functional, Streptococcus sp. 'group G'
[16] = Antimicrobial activity against erythromycin-nonsusceptible Streptococcus Group C clinical isolates assessed as percent susceptible isolates by broth microdilution method; assay type: functional, Streptococcus sp. 'group C'
[17] = test system: Staphylococcus epidermidis; assay: Antimicrobial activity against Staphylococcus epidermidis clinical isolates by broth microdilution method; assay type: functional
Enterococcus faecalis [18] = assay: Antimicrobial activity against Enterococcus faecalis clinical isolates assessed as percent susceptible isolates by broth microdilution method; assay type: functional
Enterococcus faecalis [19] = assay: Antimicrobial activity against Enterococcus faecalis expressing VanB gene clinical isolates assessed as resistant isolates by broth microdilution method; assay type: functional
[20] = test system: Staphylococcus epidermidis; assay: Antimicrobial activity against Staphylococcus epidermidis clinical isolates assessed as resistant isolates by broth microdilution method; assay type: functional
[21] = Antimicrobial activity against Streptococcus Group C clinical isolates assessed as percent susceptible isolates by broth microdilution method; assay type: functional, Streptococcus sp. 'group C'
[22] = test system: Staphylococcus epidermidis; assay: Antimicrobial activity against oxacillin-susceptible Staphylococcus epidermidis clinical isolates assessed as percent susceptible isolates by broth microdilution method; assay type: functional
[23] = test system: Staphylococcus haemolyticus; assay: Antimicrobial activity against oxacillin-resistant Staphylococcus haemolyticus clinical isolates assessed as percent susceptible isolates by broth microdilution method; assay type: functional
[24] = test system: Staphylococcus haemolyticus; assay: Antimicrobial activity against oxacillin-susceptible Staphylococcus haemolyticus clinical isolates by broth microdilution method; assay type: functional
Staphylococcus aureus [25] = assay: Antimicrobial activity against Staphylococcus aureus clinical isolates assessed as resistant isolates by broth microdilution method; assay type: functional
Enterococcus faecium [26] = assay: Antimicrobial activity against Enterococcus faecium clinical isolates by broth microdilution method; assay type: functional
[27] = test system: Staphylococcus haemolyticus; assay: Antimicrobial activity against oxacillin-resistant Staphylococcus haemolyticus clinical isolates assessed as resistant isolates by broth microdilution method; assay type: functional
Enterococcus faecalis [28] = assay: Antimicrobial activity against Enterococcus faecalis expressing VanA gene clinical isolates assessed as resistant isolates by broth microdilution method; assay type: functional
[29] = test system: Staphylococcus epidermidis; assay: Antimicrobial activity against Staphylococcus epidermidis clinical isolates assessed as percent susceptible isolates by broth microdilution method; assay type: functional
[30] = test system: Staphylococcus haemolyticus; assay: Antimicrobial activity against oxacillin-susceptible Staphylococcus haemolyticus clinical isolates assessed as resistant isolates by broth microdilution method; assay type: functional
Enterococcus faecium [31] = assay: Antimicrobial activity against Enterococcus faecium expressing VanB gene clinical isolates assessed as percent susceptible isolates by broth microdilution method; assay type: functional
Streptococcus [32] = assay: Antimicrobial activity against erythromycin-susceptible Streptococcus Group F clinical isolates assessed as percent susceptible isolates by broth microdilution method; assay type: functional
Staphylococcus aureus [33] = assay: Antimicrobial activity against Staphylococcus aureus clinical isolates by broth microdilution method; assay type: functional
Enterococcus faecium [34] = assay: Antimicrobial activity against Enterococcus faecium expressing VanB gene clinical isolates by broth microdilution method; assay type: functional
[35] = test system: Staphylococcus haemolyticus; assay: Antimicrobial activity against Staphylococcus haemolyticus clinical isolates by broth microdilution method; assay type: functional
Enterococcus faecium [36] = assay: Antimicrobial activity against vancomycin-nonsusceptible Enterococcus faecium clinical isolates by broth microdilution method; assay type: functional
Enterococcus faecalis [37] = assay: Antimicrobial activity against vancomycin-susceptible Enterococcus faecalis clinical isolates assessed as percent susceptible isolates by broth microdilution method; assay type: functional
Streptococcus [38] = assay: Antimicrobial activity against erythromycin-nonsusceptible Streptococcus Group F clinical isolates assessed as percent susceptible isolates by broth microdilution method; assay type: functional
[39] = test system: Staphylococcus haemolyticus; assay: Antimicrobial activity against oxacillin-resistant Staphylococcus haemolyticus clinical isolates by broth microdilution method; assay type: functional
[40] = Antimicrobial activity against Streptococcus Group G clinical isolates assessed as percent susceptible isolates by broth microdilution method; assay type: functional, Streptococcus sp. 'group G'
Streptococcus pneumoniae [41] = assay: Antimicrobial activity against Streptococcus pneumoniae clinical isolates assessed as resistant isolates by broth microdilution method; assay type: functional
Streptococcus pneumoniae [42] = assay: Antimicrobial activity against penicillin-intermediate Streptococcus pneumoniae clinical isolates assessed as resistant isolates by broth microdilution method; assay type: functional
[43] = Antimicrobial activity against erythromycin-nonsusceptible Streptococcus Group C clinical isolates assessed as resistant isolates by broth microdilution method; assay type: functional, Streptococcus sp. 'group C'
Streptococcus pyogenes [44] = assay: Antimicrobial activity against erythromycin-susceptible Streptococcus pyogenes clinical isolates assessed as resistant isolates by broth microdilution method; assay type: functional
Streptococcus [45] = assay: Antimicrobial activity against Streptococcus Group F clinical isolates assessed as resistant isolates by broth microdilution method; assay type: functional
Streptococcus [46] = assay: Antimicrobial activity against erythromycin-susceptible Streptococcus Group F clinical isolates assessed as resistant isolates by broth microdilution method; assay type: functional
[47] = Antimicrobial activity against Streptococcus Group G clinical isolates assessed as resistant isolates by broth microdilution method; assay type: functional, Streptococcus sp. 'group G'
[48] = Antimicrobial activity against erythromycin-nonsusceptible Streptococcus Group G clinical isolates assessed as resistant isolates by broth microdilution method; assay type: functional, Streptococcus sp. 'group G'
Streptococcus pyogenes [49] = assay: Antimicrobial activity against erythromycin-nonsusceptible Streptococcus pyogenes clinical isolates assessed as resistant isolates by broth microdilution method; assay type: functional
Streptococcus pneumoniae [50] = assay: Antimicrobial activity against penicillin-susceptible Streptococcus pneumoniae clinical isolates assessed as resistant isolates by broth microdilution method; assay type: functional
Streptococcus pyogenes [51] = assay: Antimicrobial activity against Streptococcus pyogenes clinical isolates assessed as resistant isolates by broth microdilution method; assay type: functional
Streptococcus [52] = assay: Antimicrobial activity against erythromycin-nonsusceptible Streptococcus Group F clinical isolates assessed as resistant isolates by broth microdilution method; assay type: functional

Row | SMILES | Resistant isolates [2] [%] | Activity (Staphylococcus aureus [3]) [%] | Activity (Staphylococcus aureus [4]) [%] | Percent of isolates resistant (Staphylococcus aureus [7]) [%] | Percent resistant isolates (Staphylococcus aureus [8]) [%] | Activity [10] [%] | MIC90 [12] [µg/mL] | Percent of isolates resistant [13] [%] | Activity [15] [%] | Activity [16] [%] | MIC90 [17] [µg/mL] | Percent of isolates resistant [20] [%] | Activity [21] [%] | Activity [22] [%] | Activity [23] [%] | MIC90 [24] [µg/mL] | Percent resistant isolates (Staphylococcus aureus [25]) [%] | Activity [27] [%] | Activity [29] [%] | Activity [30] [%] | further results
1 | CN[C@H](CC(C)C)C(=O)N[C@H]1C(=O)N[C@@H](CC(N)=O)C(=O)N[C@H]2C(=O)N[C@H]3C(=O)N[C@H](C(=O)N[C@H](C(=O)O)c4cc(O)cc(O)c4-c4cc3ccc4O)[C@H](O)c3ccc(c(Cl)c3)Oc3cc2cc(c3O[C@@H]2O[C@H](CO)[C@@H](O)[C@H](O)[C@H]2O[C@H]2C[C@](C)(N)[C@H](O)[C@H](C)O2)Oc2ccc(cc2Cl)[C@H]1O [VANCOMYCIN] | 0 | 100 | 100 | 0 | 0 | 100 | 2 (≈ 1.38 µM) | 0 | 100 | 100 | 2 (≈ 1.38 µM) | 0 | 100 | 100 | 100 | 1 (≈ 0.69 µM) | 0 | 0 | 100 | 0 | Activity (Enterococcus faecium [1]): 42.7%; Activity (Enterococcus faecium [5]): 0%; Activity (Enterococcus faecium [6]): 0%; Activity (Enterococcus faecium [9]): 56.3%; MIC90 [11]: 2 µg/mL (≈ 1.38 µM); MIC90 (Enterococcus faecalis [14]): > 256 µg/mL; Activity (Enterococcus faecalis [18]): 95%; Activity (Enterococcus faecalis [19]): 100%; MIC90 (Enterococcus faecium [26]): > 256 µg/mL; Activity (Enterococcus faecalis [28]): 100%; Activity (Enterococcus faecium [31]): 0%; Activity (Streptococcus [32]): 100%; MIC90 (Staphylococcus aureus [33]): 1 µg/mL (≈ 0.69 µM); MIC90 (Enterococcus faecium [34]): 256 µg/mL (≈ 177 µM); MIC90 [35]: 2 µg/mL (≈ 1.38 µM); MIC90 (Enterococcus faecium [36]): > 256 µg/mL; Activity (Enterococcus faecalis [37]): 100%; Activity (Streptococcus [38]): 100%; MIC90 [39]: 2 µg/mL (≈ 1.38 µM); Activity [40]: 100%
2 | CCC[C@@H]1C[C@@H](C(=O)N[C@@H]([C@H]2O[C@H](SC)[C@H](O)[C@@H](O)[C@H]2O)[C@H](C)Cl)N(C)C1 [CLINDAMYCIN] | 27.9 | 91.8 | 75.7 | 8 | 37.9 | 95.8 | > 2 | 43.3 | 82.4 | 82.4 | > 4 | 34.5 | 96.4 | 88.2 | 60.9 | 0.12 (≈ 0.282 µM) | 24.1 | 37.1 | 65 | 2.8 | Resistant isolates (Streptococcus pneumoniae [41]): 12.9%; Percent of isolates resistant (Streptococcus pneumoniae [42]): 15.3%; Activity [43]: 17.6%; Activity (Streptococcus pyogenes [44]): 0%; Activity (Streptococcus [45]): 3.6%; Activity (Streptococcus [46]): 0%; Activity [47]: 3.6%; Activity [48]: 17.6%; Activity (Streptococcus pyogenes [49]): 28.2%; Percent of isolates resistant (Streptococcus pneumoniae [50]): 2.6%; Activity (Streptococcus pyogenes [51]): 3.9%; Activity (Streptococcus [32]): 100%; MIC90 (Staphylococcus aureus [33]): > 4 µg/mL; MIC90 [35]: > 2 µg/mL; Activity (Streptococcus [38]): 82.4%; MIC90 [39]: > 4 µg/mL; Activity [40]: 96.4%; Activity (Streptococcus [52]): 17.6%
